The source made the active and inactive calls.
Legend:
Prothrombin = Prothrombin (Homo sapiens, UniProt P00734); assay: Thrombin 1536 HTS Dose Response Confirmation. [Related pubchem assays: 1046 (Thrombin 1536 HTS; hits were confirmed in this assay)]; assay type: functional
[1] = HPDE-C7 pancreatic duct cell viability loss – fluorescence, HTS (AID 430); assay type: functional, cell-based; details: Homo sapiens
[2] = viability loss of HPDE-C7K cells – cell-based, fluorescence, HTS, primary screen (AID 431); assay type: functional; details: Homo sapiens
cells [3] = assay type: functional, cell-based
Cytochrome P450 3A4 = Cytochrome P450 3A4 (Homo sapiens, UniProt P08684);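 further: CYP3A4 tested as one member of a cytochrome P450 panel screen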
Sequence of Cytochrome P450 3A4 (P08684 whole entry): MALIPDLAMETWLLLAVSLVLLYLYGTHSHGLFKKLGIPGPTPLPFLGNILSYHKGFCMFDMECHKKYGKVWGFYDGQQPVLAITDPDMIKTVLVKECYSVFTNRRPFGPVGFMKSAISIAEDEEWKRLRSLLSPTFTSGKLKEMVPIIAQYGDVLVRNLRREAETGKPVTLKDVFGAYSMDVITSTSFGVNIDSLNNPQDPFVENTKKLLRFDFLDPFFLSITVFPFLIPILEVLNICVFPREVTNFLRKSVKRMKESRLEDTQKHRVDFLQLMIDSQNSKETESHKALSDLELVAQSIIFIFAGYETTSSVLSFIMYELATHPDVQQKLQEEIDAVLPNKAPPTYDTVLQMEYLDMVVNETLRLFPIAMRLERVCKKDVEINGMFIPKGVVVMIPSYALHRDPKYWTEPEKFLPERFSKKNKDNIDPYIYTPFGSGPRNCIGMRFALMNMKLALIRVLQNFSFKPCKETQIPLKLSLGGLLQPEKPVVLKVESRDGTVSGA

cells [4] = assay type: functional, cell-based; remark: listed apart in the source
Cytochrome P450 2C9 = Cytochrome P450 2C9 (Homo sapiens, UniProt P11712)
Sequence of Cytochrome P450 2C9 (P11712 whole entry): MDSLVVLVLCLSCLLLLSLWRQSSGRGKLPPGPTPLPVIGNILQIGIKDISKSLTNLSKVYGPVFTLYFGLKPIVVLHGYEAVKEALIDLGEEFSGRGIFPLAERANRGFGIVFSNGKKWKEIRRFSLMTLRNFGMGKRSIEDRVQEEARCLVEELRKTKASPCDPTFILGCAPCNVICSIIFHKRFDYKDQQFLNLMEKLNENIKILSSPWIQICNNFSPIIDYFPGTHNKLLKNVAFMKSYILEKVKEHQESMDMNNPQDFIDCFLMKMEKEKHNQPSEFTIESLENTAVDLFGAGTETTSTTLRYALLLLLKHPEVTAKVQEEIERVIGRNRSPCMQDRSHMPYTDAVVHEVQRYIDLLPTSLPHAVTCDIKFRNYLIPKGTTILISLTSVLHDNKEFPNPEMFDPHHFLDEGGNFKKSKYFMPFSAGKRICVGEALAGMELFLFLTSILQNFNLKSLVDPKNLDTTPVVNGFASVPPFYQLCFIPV

Cytochrome P450 2D6 = Cytochrome P450 2D6 (Homo sapiens, UniProt P10635);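 further: CYP2D6 member of a cytochrome P450 panel assay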
cells [5] = assay: cells
[6] = Trypanosoma cruzi growth suppression in host cells – NIH3T3 host cells, beta-gal luminescence, confirmation (AID 2044); assay type: functional, cell-based;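 further: intracellular parasites grown in NIH/3T3 mouse fibroblasts as host cells; luminescent beta-galactosidase reporter signal from transgenic T. cruzi replicating inside host cells; inhibitors lower the luminescence signal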
[7] = NIH3T3 cell viability loss – ATP luminescence, mouse fibroblasts, counter-screen, dose response (AID 2010); assay type: functional, cell-based;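 further: cells exposed to compound for about 90 hours before reading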
[8] = biological target: T1, Microphthalmia-associated transcription factor (Homo sapiens, UniProt O75030); assay: reducers of TRPM1 reporter luminescence, concentration series – cell-based, SK-MEL-5, cherry-picked, set 3, MITF inhibitor project, dose response (AID 493073); assay type: functional;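 further: SK-MEL-5 melanoma cells with luciferase driven by the MITF target TRPM1 promoter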
T1 sequence (O75030 whole entry): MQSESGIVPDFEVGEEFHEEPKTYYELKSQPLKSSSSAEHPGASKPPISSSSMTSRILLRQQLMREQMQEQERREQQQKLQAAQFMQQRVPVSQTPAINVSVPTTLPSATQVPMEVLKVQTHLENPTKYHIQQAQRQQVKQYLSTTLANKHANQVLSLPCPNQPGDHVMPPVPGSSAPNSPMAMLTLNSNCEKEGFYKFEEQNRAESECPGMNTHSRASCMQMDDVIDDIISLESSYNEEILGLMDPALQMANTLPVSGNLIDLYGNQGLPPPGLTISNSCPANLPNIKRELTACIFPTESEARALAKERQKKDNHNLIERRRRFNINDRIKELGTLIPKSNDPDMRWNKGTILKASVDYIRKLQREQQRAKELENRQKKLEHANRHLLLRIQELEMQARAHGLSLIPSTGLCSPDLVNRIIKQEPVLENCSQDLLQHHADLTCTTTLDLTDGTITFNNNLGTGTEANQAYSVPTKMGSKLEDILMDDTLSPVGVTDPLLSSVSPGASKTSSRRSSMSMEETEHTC

[9] = biological target: Nucleotide-binding oligomerization domain-containing protein 2 (Homo sapiens, UniProt Q9HC29); assay: inhibition of NOD2-driven NF-kB reporter – cell-based, luminescence, uHTS, HEK293 (AID 1566); assay type: functional
Sequence of Nucleotide-binding oligomerization domain-containing protein 2 (Q9HC29 whole entry, the tested form may be a part): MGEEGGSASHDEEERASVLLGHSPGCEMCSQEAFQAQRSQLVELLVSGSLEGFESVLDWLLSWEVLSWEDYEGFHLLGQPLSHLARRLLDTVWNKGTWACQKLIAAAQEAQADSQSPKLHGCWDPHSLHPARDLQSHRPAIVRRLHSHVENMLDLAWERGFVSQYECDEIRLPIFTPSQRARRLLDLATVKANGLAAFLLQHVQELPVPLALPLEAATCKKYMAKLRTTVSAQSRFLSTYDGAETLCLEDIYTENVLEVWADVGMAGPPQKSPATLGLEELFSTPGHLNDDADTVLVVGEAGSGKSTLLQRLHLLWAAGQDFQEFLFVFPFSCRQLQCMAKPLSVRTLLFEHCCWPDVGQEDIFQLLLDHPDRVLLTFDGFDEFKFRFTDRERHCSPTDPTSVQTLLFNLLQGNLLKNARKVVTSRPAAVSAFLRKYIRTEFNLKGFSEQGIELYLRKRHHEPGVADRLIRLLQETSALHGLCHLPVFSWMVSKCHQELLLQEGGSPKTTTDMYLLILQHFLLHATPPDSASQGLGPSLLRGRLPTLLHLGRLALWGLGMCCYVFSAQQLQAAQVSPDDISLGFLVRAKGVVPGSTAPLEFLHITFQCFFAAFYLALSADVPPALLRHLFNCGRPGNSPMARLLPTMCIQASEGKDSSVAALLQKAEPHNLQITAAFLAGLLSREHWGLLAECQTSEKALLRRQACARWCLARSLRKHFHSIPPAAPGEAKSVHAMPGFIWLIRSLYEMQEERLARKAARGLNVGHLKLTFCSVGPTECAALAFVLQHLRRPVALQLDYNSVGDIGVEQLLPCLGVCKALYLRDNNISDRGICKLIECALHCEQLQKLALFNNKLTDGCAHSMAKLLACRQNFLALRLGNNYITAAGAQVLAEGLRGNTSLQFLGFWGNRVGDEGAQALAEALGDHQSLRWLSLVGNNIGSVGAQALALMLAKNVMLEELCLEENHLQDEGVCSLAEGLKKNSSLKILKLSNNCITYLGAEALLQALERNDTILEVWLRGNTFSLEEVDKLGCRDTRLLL

HEK293 [10] = assay: NOD2 signaling inhibitors in MDP-stimulated cells, cell-based, uHTS, luminescence (AID 2001); assay type: functional; details: Homo sapiens
HEK293 [11] = assay: inhibition of NOD1-driven NF-kB reporter – cell-based, luminescence, uHTS, primary screen (AID 1578); assay type: functional; details: Homo sapiens
[12] = NIH-3T3 fibroblast cytotoxicity, dose response, cytotoxicity control, cell-based, fluorescence, Alamar Blue, secondary assay (AID 2327); assay type: functional;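 further: NIH-3T3 mouse fibroblasts cultured with fluconazole at 8 µg/mL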
HEK293 [13] = assay: cells; assay type: functional, cell-based; details: Homo sapiens
[14] = fluconazole-exposed Candida albicans growth modulators – fluorescence, retest, confirmation (AID 2467); assay type: functional, cell-based
HEK293 [15] = assay: cells; assay type: functional, cell-based; details: Homo sapiens; remark: listed apart in the source
HEK293 [16] = assay: cells; assay type: functional, cell-based; details: Homo sapiens; remark: listed apart in the source
[17] = biological target: T2, Carboxy-terminal domain RNA polymerase II polypeptide A small phosphatase 1 (Homo sapiens, UniProt Q9GZU7); assay: CTDSP1 inhibitors, concentration-response, biochemical, absorbance readout, ultra-high-throughput screen actives (AID 540297); assay type: functional
T2 sequence (Q9GZU7 whole entry): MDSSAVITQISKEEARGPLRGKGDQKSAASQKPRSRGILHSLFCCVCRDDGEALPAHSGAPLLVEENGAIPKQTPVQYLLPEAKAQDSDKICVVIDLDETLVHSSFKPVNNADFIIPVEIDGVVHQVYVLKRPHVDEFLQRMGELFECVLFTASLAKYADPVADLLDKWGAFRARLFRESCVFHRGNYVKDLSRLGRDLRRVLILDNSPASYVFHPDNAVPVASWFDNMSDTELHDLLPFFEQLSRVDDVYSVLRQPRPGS

Estrogen receptor = biological target: T3, Estrogen receptor (Homo sapiens, UniProt P03372);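 further: potency for inhibiting coactivator peptide recruitment to the receptor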
T3 sequence (P03372 whole entry): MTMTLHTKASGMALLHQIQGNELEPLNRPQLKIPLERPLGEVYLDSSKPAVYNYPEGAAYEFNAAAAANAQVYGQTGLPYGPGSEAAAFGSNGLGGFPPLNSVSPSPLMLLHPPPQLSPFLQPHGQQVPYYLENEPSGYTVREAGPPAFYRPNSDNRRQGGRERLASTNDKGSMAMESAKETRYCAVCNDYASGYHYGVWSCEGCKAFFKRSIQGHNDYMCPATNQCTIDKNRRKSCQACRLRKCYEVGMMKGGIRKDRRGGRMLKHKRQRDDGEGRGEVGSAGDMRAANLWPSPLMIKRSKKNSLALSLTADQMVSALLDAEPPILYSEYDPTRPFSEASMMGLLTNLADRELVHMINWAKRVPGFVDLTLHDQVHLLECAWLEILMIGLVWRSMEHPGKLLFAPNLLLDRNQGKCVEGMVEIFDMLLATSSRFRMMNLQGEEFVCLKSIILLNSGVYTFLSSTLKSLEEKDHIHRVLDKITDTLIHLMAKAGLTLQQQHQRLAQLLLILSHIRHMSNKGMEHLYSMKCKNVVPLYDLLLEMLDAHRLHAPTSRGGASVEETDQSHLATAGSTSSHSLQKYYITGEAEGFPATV

[18] = biological target: DNA dC->dU-editing enzyme APOBEC-3G (Homo sapiens, UniProt Q9HC16); assay: Dose Response confirmation of small molecule APOBEC3G DNA Deaminase Inhibitors via a fluorescence-based single-stranded DNA deaminase assay. [Related pubchem assays (depositor defined):AID493012, AID493028]; assay type: functional
[19] = HEK-293T viability loss after treatment – luminescence, T-cell screen hits, cytotoxicity control for TCR NF-kB inhibitor project, dose response (AID 489026); assay type: functional, cell-based;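 further: cells exposed to compound about 14 hours before the viability readout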
[20] = biological target: Glyceraldehyde-3-phosphate dehydrogenase (Homo sapiens, UniProt P04406)
Sequence of Glyceraldehyde-3-phosphate dehydrogenase (P04406 whole entry): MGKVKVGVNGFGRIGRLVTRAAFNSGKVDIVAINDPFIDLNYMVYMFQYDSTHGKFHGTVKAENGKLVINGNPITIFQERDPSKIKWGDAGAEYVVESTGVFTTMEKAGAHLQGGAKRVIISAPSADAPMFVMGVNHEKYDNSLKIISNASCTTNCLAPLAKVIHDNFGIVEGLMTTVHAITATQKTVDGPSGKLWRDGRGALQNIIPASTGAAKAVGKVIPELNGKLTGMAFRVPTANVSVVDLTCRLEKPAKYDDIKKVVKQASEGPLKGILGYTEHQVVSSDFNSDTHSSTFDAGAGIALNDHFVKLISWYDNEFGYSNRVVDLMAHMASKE

[21] = viability of PTEN-deleted HCT116 cells – cell-based, HCT116 PTEN knockout, dose response (AID 1047); assay type: functional;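 further: HCT116 colon tumor cells with PTEN knocked out; cells exposed to compound for 60 hours before readout; potency for loss of cell viability measured by luminescence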
[22] = Luminescence Cell-Based Dose Retest to Confirm Inhibitors of Cancer Stem Cells. [Related pubchem assays (depositor defined):AID2717, AID2721]; assay type: functional; details: Homo sapiens
[23] = biological target: T4, Mannose-6-phosphate isomerase (Homo sapiens, UniProt P34949); assay: MPI inhibition at elevated mannose 6-phosphate – biochemical, fluorescence intensity, high mannose 6-phosphate, primary screen (AID 1220)
T4 sequence (P34949 whole entry): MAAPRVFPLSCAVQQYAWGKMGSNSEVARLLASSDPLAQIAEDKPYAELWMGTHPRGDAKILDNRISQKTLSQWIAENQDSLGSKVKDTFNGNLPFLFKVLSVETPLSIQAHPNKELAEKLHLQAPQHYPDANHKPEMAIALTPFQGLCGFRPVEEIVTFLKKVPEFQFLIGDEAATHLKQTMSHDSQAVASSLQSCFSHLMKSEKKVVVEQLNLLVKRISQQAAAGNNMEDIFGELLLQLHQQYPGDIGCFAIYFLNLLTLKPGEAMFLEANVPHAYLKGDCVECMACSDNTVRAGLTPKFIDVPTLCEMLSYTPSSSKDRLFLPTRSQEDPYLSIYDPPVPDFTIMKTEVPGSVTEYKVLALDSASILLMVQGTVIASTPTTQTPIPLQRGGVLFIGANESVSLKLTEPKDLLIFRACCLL

Fatty acid synthase [24] = biological target: T5, Fatty acid synthase (Homo sapiens, UniProt P49327); assay: inhibition of human FAS-TE enzyme activity – biochemical, kinetic fluorescence intensity, dose response (AID 624326); assay type: functional;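 further: rate of fluorescence rise from hydrolysis of a fluorogenic O-methyl fluorescein ester substrate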
T5 sequence (P49327 whole entry): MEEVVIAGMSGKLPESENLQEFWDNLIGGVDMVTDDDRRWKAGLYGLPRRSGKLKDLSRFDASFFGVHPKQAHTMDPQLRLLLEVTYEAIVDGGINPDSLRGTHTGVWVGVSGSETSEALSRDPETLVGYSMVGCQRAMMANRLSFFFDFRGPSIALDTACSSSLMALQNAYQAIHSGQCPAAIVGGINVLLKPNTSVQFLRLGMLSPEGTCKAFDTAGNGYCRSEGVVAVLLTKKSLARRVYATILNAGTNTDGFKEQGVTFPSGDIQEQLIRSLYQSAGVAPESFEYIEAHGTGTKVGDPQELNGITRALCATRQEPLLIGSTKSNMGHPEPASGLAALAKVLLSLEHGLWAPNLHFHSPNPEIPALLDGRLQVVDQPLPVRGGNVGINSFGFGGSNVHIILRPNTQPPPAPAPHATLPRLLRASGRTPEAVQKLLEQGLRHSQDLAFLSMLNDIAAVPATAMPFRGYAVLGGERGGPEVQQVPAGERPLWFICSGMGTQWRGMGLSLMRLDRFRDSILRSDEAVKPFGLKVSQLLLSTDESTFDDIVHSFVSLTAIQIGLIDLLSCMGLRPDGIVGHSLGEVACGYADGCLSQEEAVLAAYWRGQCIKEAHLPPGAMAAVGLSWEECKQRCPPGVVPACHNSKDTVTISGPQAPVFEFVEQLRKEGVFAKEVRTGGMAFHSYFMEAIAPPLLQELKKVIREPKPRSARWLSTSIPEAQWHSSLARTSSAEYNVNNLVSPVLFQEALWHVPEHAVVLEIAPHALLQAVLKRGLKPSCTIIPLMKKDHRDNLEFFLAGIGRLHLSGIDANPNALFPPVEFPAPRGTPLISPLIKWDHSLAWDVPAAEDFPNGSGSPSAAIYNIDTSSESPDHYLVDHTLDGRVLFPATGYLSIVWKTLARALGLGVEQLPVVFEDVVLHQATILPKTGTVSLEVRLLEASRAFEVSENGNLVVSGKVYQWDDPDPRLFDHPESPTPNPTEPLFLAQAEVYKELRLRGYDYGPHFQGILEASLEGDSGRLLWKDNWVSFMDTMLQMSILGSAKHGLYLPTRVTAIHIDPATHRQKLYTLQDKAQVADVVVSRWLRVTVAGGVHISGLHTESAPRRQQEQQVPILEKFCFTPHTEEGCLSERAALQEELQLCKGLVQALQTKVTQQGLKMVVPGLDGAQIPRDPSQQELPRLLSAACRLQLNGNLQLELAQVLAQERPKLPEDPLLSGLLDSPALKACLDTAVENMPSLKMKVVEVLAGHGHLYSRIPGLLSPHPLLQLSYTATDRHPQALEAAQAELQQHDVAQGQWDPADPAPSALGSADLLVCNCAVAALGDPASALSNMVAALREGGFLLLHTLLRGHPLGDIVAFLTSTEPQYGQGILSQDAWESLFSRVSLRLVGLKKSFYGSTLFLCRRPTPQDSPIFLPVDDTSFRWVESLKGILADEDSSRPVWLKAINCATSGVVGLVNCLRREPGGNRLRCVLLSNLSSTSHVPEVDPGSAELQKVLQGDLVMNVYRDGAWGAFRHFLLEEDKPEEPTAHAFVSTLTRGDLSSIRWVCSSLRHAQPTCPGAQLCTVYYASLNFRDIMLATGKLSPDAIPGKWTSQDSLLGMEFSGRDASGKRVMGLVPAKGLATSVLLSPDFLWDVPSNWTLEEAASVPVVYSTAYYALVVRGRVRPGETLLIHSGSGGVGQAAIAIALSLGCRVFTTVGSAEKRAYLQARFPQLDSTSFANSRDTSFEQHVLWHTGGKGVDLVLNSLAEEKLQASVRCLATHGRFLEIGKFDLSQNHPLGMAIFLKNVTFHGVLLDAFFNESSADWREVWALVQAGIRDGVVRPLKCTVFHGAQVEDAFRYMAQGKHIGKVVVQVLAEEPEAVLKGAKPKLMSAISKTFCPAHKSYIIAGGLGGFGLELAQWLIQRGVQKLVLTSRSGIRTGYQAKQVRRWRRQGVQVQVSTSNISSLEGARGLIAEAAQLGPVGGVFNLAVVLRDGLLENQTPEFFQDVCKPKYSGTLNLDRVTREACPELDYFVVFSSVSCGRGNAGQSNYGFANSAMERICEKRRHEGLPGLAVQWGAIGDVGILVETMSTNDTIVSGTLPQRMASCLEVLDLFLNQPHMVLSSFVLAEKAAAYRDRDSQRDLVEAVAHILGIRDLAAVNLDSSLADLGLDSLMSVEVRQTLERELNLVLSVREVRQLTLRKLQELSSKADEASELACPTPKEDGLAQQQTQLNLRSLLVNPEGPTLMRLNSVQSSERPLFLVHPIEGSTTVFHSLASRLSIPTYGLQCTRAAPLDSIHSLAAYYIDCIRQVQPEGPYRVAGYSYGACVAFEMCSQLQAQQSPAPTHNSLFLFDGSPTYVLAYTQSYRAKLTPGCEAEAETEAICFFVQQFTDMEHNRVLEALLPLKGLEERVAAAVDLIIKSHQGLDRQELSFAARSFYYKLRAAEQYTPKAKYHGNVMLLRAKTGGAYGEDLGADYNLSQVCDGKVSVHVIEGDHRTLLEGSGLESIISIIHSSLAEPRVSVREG

Fatty acid synthase [25] = biological target: T5, Fatty acid synthase; assay: inhibition of human FAS-TE enzyme activity – biochemical, endpoint fluorescence intensity, uHTS hits, dose response (AID 624327); assay type: functional;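 further: fluorescence from hydrolysis of an O-methyl fluorescein acyl ester substrate by the enzyme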
[26] = reduction of Shn3 3'UTR-driven luciferase in osteoblasts – cell-based, Clone20 osteoblasts, firefly luciferase, cherry-picked, dose response (AID 624132); assay type: functional;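 further: firefly luciferase luminescence from reporter carrying the Shn3 3'UTR in osteoblasts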
[27] = non-specific 3'UTR reporter inhibition in Clone20-Shn3RL – cell-based, Renilla luciferase, cherry-picked, counter-screen for Shn3 inhibitor project, dose response (AID 624133); assay type: functional
[28] = biological target: T6, Heat shock factor protein 1 (Mus musculus, UniProt P38532); assay: enhancement of HSF1-driven luciferase signal – cell-based, NIH3T3, luminescence, dose retest, confirmation (AID 435004); assay type: functional;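 further: stress induced by proteasome inhibitor MG132 added 30 min after compound; luciferase reporter driven by HSF1 response element in NIH3T3 cells; actives raise luminescence as potentiators of the MG132 stress response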
T6 sequence (P38532 whole entry): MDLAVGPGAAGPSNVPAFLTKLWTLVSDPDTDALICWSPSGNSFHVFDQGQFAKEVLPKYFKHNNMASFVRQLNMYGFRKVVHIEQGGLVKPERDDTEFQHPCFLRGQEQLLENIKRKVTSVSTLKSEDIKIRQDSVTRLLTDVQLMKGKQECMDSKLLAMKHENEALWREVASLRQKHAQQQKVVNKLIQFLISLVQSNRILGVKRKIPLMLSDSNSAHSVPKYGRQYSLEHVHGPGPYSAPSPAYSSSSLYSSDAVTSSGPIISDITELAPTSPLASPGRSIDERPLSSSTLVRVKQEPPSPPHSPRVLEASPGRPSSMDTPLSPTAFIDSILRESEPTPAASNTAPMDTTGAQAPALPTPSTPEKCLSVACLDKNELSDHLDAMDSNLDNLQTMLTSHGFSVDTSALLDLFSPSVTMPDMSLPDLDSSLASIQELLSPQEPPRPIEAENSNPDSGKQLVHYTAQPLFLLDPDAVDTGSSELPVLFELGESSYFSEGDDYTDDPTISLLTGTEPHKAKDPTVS

[29] = loss of viability in HepG2 cells – cell-based, CellTiter-Glo, cherry-picked, cytotoxicity control for Shn3 inhibitor project, dose response (AID 624134); assay type: functional
[30] = viability of HCT116 lacking mutant beta-catenin – cell-based, human colon tumor, dose response (AID 1045); assay type: functional;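 further: HCT116 colon tumor cells with beta catenin knocked out; cells exposed to compound for 60 hours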

CCC(=O)Nc1cccc(C(=O)OCc2cccc([N+](=O)[O-])c2)c1
IC50 (Prothrombin): > 50 µM (not active)

CC(=O)c1ccc(S(=O)(=O)Nc2ccc(-c3cn4c(n3)SCC4)cc2)cc1
IC50 (Prothrombin): > 50 µM (not active)

CCOC(=O)C1=C(N)c2ccccc2CC1C(C)C (stereo not given)
EC50 [1]: > 20 µM (not active) | EC50 [2]: > 20 µM (not active)

Nc1nnc(SCCCC(=O)c2ccccc2)s1
IC50 (Prothrombin): > 50 µM (not active)

CCOc1nc(NCCN2CCOCC2)nc(Nc2ccc(C)cc2)n1
EC50 (cells [3]): > 350 µM (not active) | IC50 (Prothrombin): > 50 µM (not active) | AC50 (Cytochrome P450 3A4): 15.8 µM (inconclusive) | EC50 (cells [4]): > 350 µM (not active) | AC50 (Cytochrome P450 2C9): 11.2 µM (inconclusive) | AC50 (Cytochrome P450 2D6): 11.2 µM (inconclusive)

O=C(CCCN1C(=O)c2cccnc2C1=O)N1CC(=O)N(CCc2ccccc2)C(=O)C1
EC50 [1]: > 20 µM (not active) | EC50 [2]: > 20 µM (not active)

CN1CCc2c(sc3c2c(=O)n(-c2ccccc2)c2nnc(SCc4ccccc4)n32)C1
EC50 (cells [5]): 0.015 µM (active) | EC50 [6]: < 0.1 µM (active) | EC50 [7]: > 60 µM (not active)

O=C(CCl)N1c2ccccc2SCC1c1ccccc1 (stereo not given)
AC50 [8]: 4.2 µM (active) | EC50 [9]: > 20 µM (inactive) | IC50 (HEK293 [10]): 8.37 µM (active) | EC50 (HEK293 [11]): 11.5 µM (active) | EC50 [12]: 7.57 µM (inconclusive) | IC50 (HEK293 [13]): > 20 µM (inactive) | EC50 [14]: > 38 µM (not active) | IC50 (HEK293 [15]): 5.49 µM (active) | IC50 (HEK293 [16]): > 20 µM (inactive)

Cc1ccc2c(CN3CCN(Cc4ccccc4)CC3)cc(=O)oc2c1
EC50 (cells [5]): 0.049 µM (active) | EC50 [6]: < 0.1 µM (active) | EC50 [7]: > 60 µM (not active)

Cn1c(SCc2cc(=O)n3cc(Br)ccc3n2)nnc1C1COc2ccccc2O1 (stereo not given)
IC50 [17]: 17.8 µM (active) | IC50 (Estrogen receptor): 25.2 µM (active)

O=C(Nc1cc(S(=O)(=O)Nc2ccc(Cl)cc2)ccc1O)c1ccc(S(=O)(=O)N2CCCCCC2)cc1
IC50 [17]: 2.73 µM (active) | IC50 [18]: 73.7 µM (active)

CS(=O)(=O)c1ccc2nc(NC(=O)CCC(=O)c3cccs3)sc2c1
IC50 (Estrogen receptor): 7.11 µM (active)

COc1ccc(C(=O)NC(=C(Cl)Cl)S(=O)(=O)c2ccc(C)cc2)cc1
EC50 [9]: > 20 µM (inactive) | IC50 (HEK293 [10]): 8.96 µM (active) | EC50 (HEK293 [11]): 12.3 µM (active) | IC50 (HEK293 [13]): > 20 µM (inactive) | IC50 (HEK293 [15]): 8.07 µM (active) | IC50 (HEK293 [16]): > 20 µM (inactive)

COc1cc(C(=O)OCCc2cc3ccccc3c(=O)o2)cc(OC)c1OC
IC50 [19]: 69.5 µM (inactive)

O=c1cc(CN2CCN(Cc3ccccc3)CC2)c2ccc(O)cc2o1
EC50 (cells [5]): 0.038 µM (active) | EC50 [6]: < 0.1 µM (active) | EC50 [7]: > 60 µM (not active)

COc1cc(/C=C2/SC(=S)NC2=O)cc(Cl)c1OCc1cccc2ccccc12
IC50 [20]: > 100 µM (not active)

Cc1cccc(N2C(=O)C(Cl)=C(N3CCN[C@H](C)C3)C2=O)c1
IC50 [20]: > 50 µM (inconclusive)

O=[N+]([O-])c1c(NCCCO)cc(Sc2ccc(Cl)cc2)c2nonc12
EC50 [21]: 13.5 µM (active) | AC50 [22]: 4.49 µM (active) | IC50 [23]: > 50 µM (not active) | IC50 (Fatty acid synthase [24]): 6.69 µM (active) | IC50 (Fatty acid synthase [25]): 11.5 µM (active) | AC50 [26]: 5.63 µM (active) | AC50 [27]: 12.7 µM (active) | EC50 [28]: 4.81 µM (active) | AC50 [29]: 25.4 µM (active) | EC50 [30]: 9.46 µM (active)

Source: ChEMBL document CHEMBL1201862, “PubChem BioAssay data set” (2004)
